Experimental data published in PMC11220606, “Understanding β-strand mediated protein–protein interactions: tuning binding behaviour of intrinsically disordered sequences by backbone modification” (Chemical Science, 2024).

Columns and labels:
[1] = target: T1, human SUMO-1_18–97 (SUMO) (Homo sapiens, UniProt P63165); assay: Fluorescence anisotropy competition assay (FAM-SIM tracer displacement from SUMO); conditions: for inhibitory potency relative to the parent SIM peptide (in words): fluorescence anisotropy competition assay, backbone N-methyl scan
Description: Fluorescence competition anisotropy data. The parent SIM peptide and its N-methylated variants were each
peptide (50 nM) in Tris-buffered saline (20 mM Tris, pH 8.0, 150 mM NaCl and 0.03% Triton-X).
Tris, 150 mM NaCl, 0.01 % Triton-X, pH 7.4 using 50 nM FAM PEG-SIM tracer and 3 μM SUMO protein.
Inhibitory potencies for N-methylated SIM peptides to SUMO. IC50 values were determined through competition
FA experiments (20 mm Tris, 150 mM NaCl, 0.03% Triton X, pH 8.0).
Competition binding assays were performed in triplicate within 384-well plates (Greiner Bio-one). Competitor
nM, 3 μM, 50 nM final concentrations of competitor, SUMO and tracer respectively). Control wells lacked
tracer. The plates were kept in the dark for at least 30 min before fluorescence polarisation was measured.
Labtech), with excitation at 482 nm (bandwidth = 16 nM) and emission at 530 nm (bandwidth = 40 nm). For
(bandwidth = 20 nM) and emission at 535 nm (bandwidth = 25 nm).
Perependicular (P) and parallel (S) intensities of the control wells were averaged and deducted from each
= Ssample – Sav. control). The total sample intensities (I) and anisotropies (r) were then calculated as follows:
Fluorescence anisotropy values were plotted against competitor peptide concentrations and fit to a logistic
function of the form Y = A2 + (A1 – A2) / (1 + (x/x0)p) for determination of half-maximal inhibitory concentrations
Note: To ensure a set of self-consistent IC50 values for comparison, experiments were performed using a single
batch of protein given subtle batch dependent variations in active concentration of protein.

[2] = target: T1, human SUMO-1_18–97 (SUMO); assay: Relaxation-based NMR binding kinetics (15N ZZ-exchange for tighter binders, CPMG relaxation dispersion for weaker binders); conditions: for koff / kon: pH 7.4
Description: Non-overlapping exchange cross-peaks were evident for a subset of residues when the ^15N magnetizations of the bound and unbound states were mixed following t1 (^15N) evolution (ZZ-exchange spectroscopy). Global fitting of the intensities of auto and cross peaks as a function of mixing time to McConnel equations (Fig. 3c, S8–S11; ESI ^† for methods) gave apparent first-order association k^appon and first-order dissociation koff rates for binding, which were converted to kon and dissociation equilibrium constants (KD).
All NMR spectra acquired using 15N-labelled protein samples were acquired at 5 °C, in 20 mM sodium
phosphate pH 7.4, 150 mM NaCl, 0.02% NaN3, on 750 or 600 MHz Bruker NMR spectrometers.
Protein and peptide NMR spectra were processed with NMRPipe and analysed in CcpNmr analysis.
15N ZZ-exchange spectroscopy
15N ZZ-exchange experiments were performed in an interleaved manner as described previously4 using mixing
times between 10 and 500 ms. Data were fit to a simple 2-state model:
where state A represents unbound SUMO and state B represents SUMO bound to SIM. The time-evolution of
the longitudinal magnetisations during mixing are described by the corresponding McConnel equations:4
𝑧 = 𝑘𝑎𝑝𝑝𝑀𝑏𝑎 ‒ 𝑀𝑏𝑏(𝑘 + 𝑅𝑏)
𝑧 = 𝑘 𝑀𝑏𝑏 ‒ 𝑀𝑏𝑎(𝑘𝑎𝑝𝑝 + 𝑅𝑎)
where is the𝑀𝑎𝑎𝑧 z-magnetization of unbound SUMO, is the𝑀𝑏𝑏𝑧 z-magnetization of bound SUMO, and , 𝑀𝑎𝑏𝑧
𝑧 are the z-magnetizations of the corresponding exchange cross-peaks. are11 the longitudinal relaxation
rates for states A and B, and are𝑜𝑛𝑜𝑓𝑓 the pseudo-first order association and dissociation rates,
respectively. Simple analytical solutions to the above equations are available4 and were used to fit the ZZ-
exchange data. Fitting parameters included , residue𝑜𝑛𝑜𝑓𝑓 specific rates,11 and scaling factors
𝐼𝑎𝑎, 𝐼𝑏𝑏 that incorporate any differences in the relaxation rates of the bound and unbound species. Scaling
factors for the exchange cross-peaks were 𝐼𝑎𝑏, 𝐼𝑏𝑎 not included as these were absent at the start of the mixing
period in all cases. Uncertainties in the fitted parameters were calculated using a Monte-Carlo approach based
on the noise of the experiment. Fitting was performed using in-house scripts written in Python employing the
LmFit module available at https://lmfit.github.io/lmfit-py/.

[3] = target: T1, human SUMO-1_18–97 (SUMO); assay: Temperature dependence of NMR-derived exchange parameters (Van't Hoff and Eyring analysis); format: binding; parameters: human SUMO-1_18–97 (SUMO); His tag with TEV site (N, cleaved yes); made in house; conditions: 25 °C; for TΔS, Association (activation, kon) / TΔS, Dissociation (activation, koff) / ΔG, Association (activation, kon) / ΔG, Dissociation (activation, koff) / ΔH, Association (activation, kon) / ΔH, Dissociation (activation, koff): Eyring fit, ± SD of fitted parameter (Monte-Carlo), SD
Description: Eyring plots were obtained for the temperature-dependence of the kon and koff rates (Fig. 5d and e), from which the association/dissociation activation enthalpies (ΔH^‡ass/ΔH^‡diss), activation/dissociation entropies (TΔS^‡ass/TΔS^‡diss), and thus activation/dissociation free energies (ΔG^‡ass/ΔG^‡diss), could be determined.

[4] = target: T1, human SUMO-1_18–97 (SUMO); assay: as above; format: binding; parameters: human SUMO-1_18–97 (SUMO); His tag with TEV site (N, cleaved yes); made in house; conditions: 25 °C; for TΔS, Binding (KD) / ΔH, Binding (KD): Van't Hoff fit, ± SD of fitted parameter (Monte-Carlo), SD

T1 sequence (P63165 18-97): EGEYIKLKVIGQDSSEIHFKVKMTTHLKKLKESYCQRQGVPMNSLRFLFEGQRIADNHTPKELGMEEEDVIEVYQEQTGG

IC50 [1] [µM] | Kd [2] [µM] | koff [2] [s⁻¹] | kon [2] [M⁻¹ s⁻¹] | Compound | other results
9.4 ± 0.5 | – | – | – | CC[C@H](C)[C@H](NC(=O)[C@H](CCC(=O)O)NC(=O)[C@H](CC(N)=O)N(C)C(=O)[C@H](CC(=O)O)NC(C)=O)C(=O)N[C@@H](CCC(=O)O)C(=O)N[C@H](C(=O)N[C@H](C(=O)N[C@H](C(=O)N[C@H](C(=O)N[C@@H](Cc1c[nH]c2ccccc12)C(=O)N[C@@H](CCC(=O)O)C(=O)N[C@@H](CCCCN)C(=O)N[C@@H](CCCCN)C(N)=O)C(C)C)[C@@H](C)CC)[C@@H](C)CC)C(C)C [Me-Asn2706] | –
12.6 ± 0.5 | – | – | – | CC[C@H](C)[C@H](NC(=O)[C@H](CCC(=O)O)NC(=O)[C@H](CC(N)=O)NC(=O)[C@H](CC(=O)O)N(C)C(C)=O)C(=O)N[C@@H](CCC(=O)O)C(=O)N[C@H](C(=O)N[C@H](C(=O)N[C@H](C(=O)N[C@H](C(=O)N[C@@H](Cc1c[nH]c2ccccc12)C(=O)N[C@@H](CCC(=O)O)C(=O)N[C@@H](CCCCN)C(=O)N[C@@H](CCCCN)C(N)=O)C(C)C)[C@@H](C)CC)[C@@H](C)CC)C(C)C [Me-Asp2705] | –
12.4 ± 0.8 | – | – | – | CC[C@H](C)[C@H](NC(=O)[C@@H](NC(=O)[C@H](CCC(=O)O)NC(=O)[C@@H](NC(=O)[C@H](CCC(=O)O)N(C)C(=O)[C@H](CC(N)=O)NC(=O)[C@H](CC(=O)O)NC(C)=O)[C@@H](C)CC)C(C)C)C(=O)N[C@H](C(=O)N[C@H](C(=O)N[C@@H](Cc1c[nH]c2ccccc12)C(=O)N[C@@H](CCC(=O)O)C(=O)N[C@@H](CCCCN)C(=O)N[C@@H](CCCCN)C(N)=O)C(C)C)[C@@H](C)CC [Me-Glu2707] | –
31.4 ± 3 | – | – | – | CC[C@H](C)[C@H](NC(=O)[C@@H](NC(=O)[C@H](CCC(=O)O)N(C)C(=O)[C@@H](NC(=O)[C@H](CCC(=O)O)NC(=O)[C@H](CC(N)=O)NC(=O)[C@H](CC(=O)O)NC(C)=O)[C@@H](C)CC)C(C)C)C(=O)N[C@H](C(=O)N[C@H](C(=O)N[C@@H](Cc1c[nH]c2ccccc12)C(=O)N[C@@H](CCC(=O)O)C(=O)N[C@@H](CCCCN)C(=O)N[C@@H](CCCCN)C(N)=O)C(C)C)[C@@H](C)CC [Me-Glu2709] | –
27.4 ± 1.9 | – | – | – | CC[C@H](C)[C@H](NC(=O)[C@H](CCC(=O)O)NC(=O)[C@H](CC(N)=O)NC(=O)[C@H](CC(=O)O)NC(C)=O)C(=O)N[C@@H](CCC(=O)O)C(=O)N[C@H](C(=O)N[C@H](C(=O)N[C@H](C(=O)N[C@H](C(=O)N[C@@H](Cc1c[nH]c2ccccc12)C(=O)N(C)[C@@H](CCC(=O)O)C(=O)N[C@@H](CCCCN)C(=O)N[C@@H](CCCCN)C(N)=O)C(C)C)[C@@H](C)CC)[C@@H](C)CC)C(C)C [Me-Glu2715] | –
5.4 ± 0.3 | 14 ± 0.4 | 4.58 ± 0.04 | 327000 ± 9000 | CC[C@H](C)[C@H](NC(=O)[C@@H](NC(=O)[C@H](CCC(=O)O)NC(=O)[C@H]([C@@H](C)CC)N(C)C(=O)[C@H](CCC(=O)O)NC(=O)[C@H](CC(N)=O)NC(=O)[C@H](CC(=O)O)NC(C)=O)C(C)C)C(=O)N[C@H](C(=O)N[C@H](C(=O)N[C@@H](Cc1c[nH]c2ccccc12)C(=O)N[C@@H](CCC(=O)O)C(=O)N[C@@H](CCCCN)C(=O)N[C@@H](CCCCN)C(N)=O)C(C)C)[C@@H](C)CC [Me-Ile2708] | –
> 300 | – | – | – | CC[C@H](C)[C@H](NC(=O)[C@H](CCC(=O)O)NC(=O)[C@H](CC(N)=O)NC(=O)[C@H](CC(=O)O)NC(C)=O)C(=O)N[C@@H](CCC(=O)O)C(=O)N[C@H](C(=O)N(C)[C@H](C(=O)N[C@H](C(=O)N[C@H](C(=O)N[C@@H](Cc1c[nH]c2ccccc12)C(=O)N[C@@H](CCC(=O)O)C(=O)N[C@@H](CCCCN)C(=O)N[C@@H](CCCCN)C(N)=O)C(C)C)[C@@H](C)CC)[C@@H](C)CC)C(C)C [Me-Ile2711, Ac-DNEIEV(NMe)IIVWEKK-NH2] | inhibitory potency relative to the parent SIM peptide (in words) [1]: significantly diminished inhibitory potency
7.9 ± 1 | 14.5 ± 0.9 | 5.9 ± 0.08 | 410000 ± 28000 | CC[C@H](C)[C@H](NC(=O)[C@H](CCC(=O)O)NC(=O)[C@H](CC(N)=O)NC(=O)[C@H](CC(=O)O)NC(C)=O)C(=O)N[C@@H](CCC(=O)O)C(=O)N[C@H](C(=O)N[C@H](C(=O)N(C)[C@H](C(=O)N[C@H](C(=O)N[C@@H](Cc1c[nH]c2ccccc12)C(=O)N[C@@H](CCC(=O)O)C(=O)N[C@@H](CCCCN)C(=O)N[C@@H](CCCCN)C(N)=O)C(C)C)[C@@H](C)CC)[C@@H](C)CC)C(C)C [Me-Ile2712, Ac-DNEIEVI(NMe)IVWEKK-NH2] | TΔS‡ass more favourable than parent by [3]: ≈ 11 kJ mol^−1; ΔH‡ass more unfavourable than parent by [3]: ≈ 8 kJ mol^−1; TΔS, Association (activation, kon) [3]: 34.78 ± 0.502 kcal/mol; TΔS, Dissociation (activation, koff) [3]: -3.51 ± 0.048 kcal/mol; ΔG, Association (activation, kon) [3]: 6.57 ± 0.526 kcal/mol; ΔG, Dissociation (activation, koff) [3]: 15.5 ± 0.096 kcal/mol; ΔH, Association (activation, kon) [3]: 41.23 ± 0.502 kcal/mol; ΔH, Dissociation (activation, koff) [3]: 12 ± 0.072 kcal/mol; decrease in ΔGbind relative to parent [4]: 0.72 kcal/mol; increase in enthalpy (ΔHbind) in comparison to the parent SIM peptide [4]: ~2.87 kcal/mol; increase in entropy of binding (TΔSbind) in comparison to the parent SIM peptide [4]: ~3.59 kcal/mol; TΔS, Binding (KD) [4]: 38.67 ± 0.478 kcal/mol; ΔH, Binding (KD) [4]: 29.92 ± 0.048 kcal/mol; ΔΔG vs. parent (increase in affinity) ([2]; from KD values of 15N ZZ-exchange data at 5 °C): ~0.48 kcal/mol
> 100 | 510 ± 40 | 553 ± 17 | 1.09e+06 ± 70000 | CC[C@H](C)[C@H](NC(=O)[C@H](CCC(=O)O)NC(=O)[C@H](CC(N)=O)NC(=O)[C@H](CC(=O)O)NC(C)=O)C(=O)N[C@@H](CCC(=O)O)C(=O)N[C@H](C(=O)N[C@H](C(=O)N[C@H](C(=O)N[C@H](C(=O)N[C@@H](Cc1c[nH]c2ccccc12)C(=O)N[C@@H](CCC(=O)O)C(=O)N(C)[C@@H](CCCCN)C(=O)N[C@@H](CCCCN)C(N)=O)C(C)C)[C@@H](C)CC)[C@@H](C)CC)C(C)C [Me-Lys2716] | TΔS, Association (activation, kon) [3]: 3.11 ± 0.048 kcal/mol; TΔS, Dissociation (activation, koff) [3]: -9.2 ± 0.024 kcal/mol; ΔG, Association (activation, kon) [3]: 8.46 ± 0.072 kcal/mol; ΔG, Dissociation (activation, koff) [3]: 13.5 ± 0.024 kcal/mol; ΔH, Association (activation, kon) [3]: 11.6 ± 0.048 kcal/mol; ΔH, Dissociation (activation, koff) [3]: 4.28 ± 0.024 kcal/mol; TΔS, Binding (KD) [4]: 12.5 ± 0.048 kcal/mol; ΔH, Binding (KD) [4]: 7.5 ± 0.048 kcal/mol
10 ± 0.4 | 13.6 ± 0.5 | 8.95 ± 0.12 | 657000 ± 27000 | CC[C@H](C)[C@H](NC(=O)[C@H](CCC(=O)O)NC(=O)[C@H](CC(N)=O)NC(=O)[C@H](CC(=O)O)NC(C)=O)C(=O)N[C@@H](CCC(=O)O)C(=O)N[C@H](C(=O)N[C@H](C(=O)N[C@H](C(=O)N[C@H](C(=O)N[C@@H](Cc1c[nH]c2ccccc12)C(=O)N[C@@H](CCC(=O)O)C(=O)N[C@@H](CCCCN)C(=O)N(C)[C@@H](CCCCN)C(N)=O)C(C)C)[C@@H](C)CC)[C@@H](C)CC)C(C)C [Me-Lys2717] | –
> 100 | – | – | – | CC[C@H](C)[C@H](NC(=O)[C@H](CCC(=O)O)NC(=O)[C@H](CC(N)=O)NC(=O)[C@H](CC(=O)O)NC(C)=O)C(=O)N[C@@H](CCC(=O)O)C(=O)N[C@H](C(=O)N[C@H](C(=O)N[C@H](C(=O)N[C@H](C(=O)N(C)[C@@H](Cc1c[nH]c2ccccc12)C(=O)N[C@@H](CCC(=O)O)C(=O)N[C@@H](CCCCN)C(=O)N[C@@H](CCCCN)C(N)=O)C(C)C)[C@@H](C)CC)[C@@H](C)CC)C(C)C [Me-Trp2714] | inhibitory potency relative to the parent SIM peptide (in words) [1]: significantly diminished inhibitory potency
> 100 | 388 ± 7 | 208 ± 1 | 536000 ± 10000 | CC[C@H](C)[C@H](NC(=O)[C@H](CCC(=O)O)NC(=O)[C@H](CC(N)=O)NC(=O)[C@H](CC(=O)O)NC(C)=O)C(=O)N[C@@H](CCC(=O)O)C(=O)N(C)[C@H](C(=O)N[C@H](C(=O)N[C@H](C(=O)N[C@H](C(=O)N[C@@H](Cc1c[nH]c2ccccc12)C(=O)N[C@@H](CCC(=O)O)C(=O)N[C@@H](CCCCN)C(=O)N[C@@H](CCCCN)C(N)=O)C(C)C)[C@@H](C)CC)[C@@H](C)CC)C(C)C [Me-Val2710] | –
> 100 | – | – | – | CC[C@H](C)[C@H](NC(=O)[C@H](CCC(=O)O)NC(=O)[C@H](CC(N)=O)NC(=O)[C@H](CC(=O)O)NC(C)=O)C(=O)N[C@@H](CCC(=O)O)C(=O)N[C@H](C(=O)N[C@H](C(=O)N[C@H](C(=O)N(C)[C@H](C(=O)N[C@@H](Cc1c[nH]c2ccccc12)C(=O)N[C@@H](CCC(=O)O)C(=O)N[C@@H](CCCCN)C(=O)N[C@@H](CCCCN)C(N)=O)C(C)C)[C@@H](C)CC)[C@@H](C)CC)C(C)C [Me-Val2713] | inhibitory potency relative to the parent SIM peptide (in words) [1]: significantly diminished inhibitory potency
